Reference: patent publication US20230302042A1, “METHODS FOR THE PREVENTION OF CHOLESTEROL CRYSTAL EMBOLIZATION WITH CYCLODEXTRINS” (Beren Therapeutics P.B.C., priority 2020, published 2023)

Key:
[1] = human subject; single-ascending intravenous doses 500, 750, 1,000, 1,000 mg/kg every 4 weeks; plasma pre-dose, post-dose, 1 hour and 24 hours post-dose; FIG. 1A
Experimental: A human subject was treated with 2-hydroxypropyl-beta-cyclodextrin with single-ascending doses administered intravenously every 4 weeks according to Table 1 below. […] For each dose, whole blood was collected pre-dose, post-dose (line flush), 1 hour post-dose, and 24 hours post-dose. Plasma was separated from the whole blood and subjected to a cholesterol crystal dissolution capacity (CCDC) assay using techniques similar to those described in the literature. The CCDC assay measures the ability of a sample to dissolve cholesterol crystals.

[2] = pre-dose human blood plasma incubated ex vivo with the cyclodextrin; FIG. 1B
Experimental: For each dose, whole blood was collected pre-dose, post-dose (line flush), 1 hour post-dose, and 24 hours post-dose. Plasma was separated from the whole blood and subjected to a cholesterol crystal dissolution capacity (CCDC) assay using techniques similar to those described in the literature. The CCDC assay measures the ability of a sample to dissolve cholesterol crystals.
Blood plasma pre-dose was also incubated ex vivo with 2-hydroxypropyl-beta-cyclodextrin and the ability of the plasma to dissolve cholesterol crystals was measured.

[3] = human subject; intravenous doses 500-1,000 mg/kg every 4 weeks; FIGS. 2A-2C
Experimental: (§1) A human subject was treated with 2-hydroxypropyl-beta-cyclodextrin with single-ascending doses administered intravenously every 4 weeks according to Table 1 below.
(§2) In this Example, a human subject was treated with 2-hydroxypropyl-beta-cyclodextrin according to Example 1, and plasma levels of 24S-hydroxycholesterol and 27-hydroxycholesterol were measured. […] 27-hydroxycholesterol is an endogenous LXR ligand leading to a downstream anti-inflammatory gene signature which may, in some embodiments, address the detrimental inflammatory response via NLRP3 inflammasome effects of cholesterol crystal embolization. The elevated 27-hydroxycholesterol is also a cellular marker of macrophage activation and increased activity for cholesterol crystal phagocytosis and clearance.

24S-hydroxycholesterol = conditions: human subject; intravenous doses 500-1,000 mg/kg every 4 weeks; FIGS. 2A-2C
Experimental: as §1, §2

27-hydroxycholesterol = conditions: human subject; intravenous doses 500-1,000 mg/kg every 4 weeks; FIGS. 2A-2C
Experimental: as §1, §2

ABCA1 = conditions: human subject; intravenous doses 500-1,000 mg/kg every 4 weeks; peripheral blood; FIGS. 3A-3D
Experimental: as §1
(§3) In this Example, a human subject was treated with 2-hydroxypropyl-beta-cyclodextrin according to Example 1, and mRNA levels of the LXR transcription factor-regulated genes, ABCA1 and ABCG1, were measured. […] ABCA1 and ABCG1 are important cholesterol transporters and are responsible for cholesterol efflux from cells, loading of HDL particles for reverse cholesterol transport (RCT), and excretion via the hepatic pathway, to potentially reduce the cholesterol and cholesterol crystal emboli released into the vasculature and stabilize ruptured atherosclerotic plaque.

ABCG1 = conditions: human subject; intravenous doses 500-1,000 mg/kg every 4 weeks; peripheral blood; FIGS. 3A-3D
Experimental: as §1, §3

2-hydroxypropyl-beta-cyclodextrin
capability of blood plasma to dissolve cholesterol crystals (CCDC) after treatment [1]: increased capability
capacity of plasma to dissolve cholesterol crystals after ex vivo incubation [2]: increased capacity
total cholesterol levels in plasma [3]: remained stable
plasma level of 24S-hydroxycholesterol (24S-hydroxycholesterol): increased plasma levels
plasma level of 27-hydroxycholesterol (27-hydroxycholesterol): increased plasma levels
mRNA level of ABCA1 (ABCA1): increased mRNA levels
mRNA level of ABCG1 (ABCG1): increased mRNA levels
